# Laboratory results reported in ChEMBL document CHEMBL1143609, “Conformationally restricted analogues of psorospermin: design, synthesis, and bioactivity of natural-product-related bisfuranoxanthones” (J Med Chem, 2005).
# Assays:
# Type in all cases: functional, cell-based
# Conditions in all cases: Homo sapiens
# NCI-H522 = test: Inhibitory concentration against H522 cell line
# HT-29 = test: Inhibitory concentration against HT-29 cell line
# HeLa = test: Inhibitory concentration against HeLa cell line
# HepG2 = test: Inhibitory concentration against HepG2 cell line
# COLO 320 = test: Inhibitory concentration against COLO 320 cell line
# MIA PaCa-2 = test: Inhibitory concentration against MIA PaCa cell line
structure (smiles),measurement,setting,value
COc1cccc2c(=O)c3c(O)c4c(cc3oc12)O[C@@H]1[C@H]4OC[C@@]1(C)O,IC50,NCI-H522,> 30 µM
same,IC50,HT-29,> 30 µM
same,IC50,HeLa,23.5 µM
same,IC50,HepG2,> 30 µM
same,IC50,COLO 320,> 30 µM
same,IC50,MIA PaCa-2,> 30 µM
COc1cccc2c(=O)c3c(O)c4c(cc3oc12)O[C@@H]1[C@H]4OC[C@]1(C)O,IC50,NCI-H522,> 30 µM
same,IC50,HT-29,> 30 µM
same,IC50,HeLa,23.5 µM
same,IC50,HepG2,> 30 µM
same,IC50,COLO 320,> 30 µM
same,IC50,MIA PaCa-2,> 30 µM
COc1cccc2c(=O)c3c(O)cc4c(c3oc12)C[C@H]([C@](C)(O)CO)O4,IC50,NCI-H522,> 30 µM
same,IC50,HT-29,> 30 µM
same,IC50,HeLa,> 30 µM
same,IC50,HepG2,> 30 µM
same,IC50,COLO 320,> 30 µM
same,IC50,MIA PaCa-2,> 30 µM
COc1cccc2c(=O)c3c(O)cc4c(c3oc12)C[C@H]([C@@](C)(O)CO)O4,IC50,NCI-H522,28.4 µM
same,IC50,HT-29,> 30 µM
same,IC50,HeLa,> 30 µM
same,IC50,HepG2,> 30 µM
same,IC50,COLO 320,19.2 µM
same,IC50,MIA PaCa-2,23.8 µM
COc1cccc2c(=O)c3c(O)cc4c(c3oc12)[C@@H]1OC[C@]2(CO2)[C@@H]1O4,IC50,NCI-H522,19.4 µM
same,IC50,HT-29,> 30 µM
same,IC50,HeLa,32.5 µM
same,IC50,HepG2,13.1 µM
same,IC50,COLO 320,9.19 µM
same,IC50,MIA PaCa-2,10.9 µM
COc1cc2c(c3oc4c(O)cccc4c(=O)c13)C[C@H]([C@@]1(C)CO1)O2 [PSOROSPERMIN],IC50,NCI-H522,0.45 µM
same,IC50,HT-29,0.64 µM
same,IC50,HeLa,0.71 µM
same,IC50,HepG2,0.38 µM
same,IC50,COLO 320,0.069 µM
same,IC50,MIA PaCa-2,0.21 µM
COc1cccc2c(=O)c3c(O)cc4c(c3oc12)[C@@H]1OC[C@](O)(CO)[C@@H]1O4,IC50,NCI-H522,20 µM
same,IC50,HT-29,36.7 µM
same,IC50,HeLa,19 µM
same,IC50,HepG2,> 30 µM
same,IC50,COLO 320,12.3 µM
same,IC50,MIA PaCa-2,12.3 µM
COc1cccc2c(=O)c3c(O)cc4c(c3oc12)[C@@H]1OC[C@](O)(CCl)[C@@H]1O4,IC50,NCI-H522,7.14 µM
same,IC50,HT-29,7.13 µM
same,IC50,HeLa,7.5 µM
same,IC50,HepG2,> 30 µM
same,IC50,COLO 320,0.9 µM
same,IC50,MIA PaCa-2,3.76 µM
C=C1CO[C@H]2c3c(cc(O)c4c(=O)c5cccc(OC)c5oc34)O[C@@H]12,IC50,NCI-H522,> 30 µM
same,IC50,HT-29,> 30 µM
same,IC50,HeLa,> 30 µM
same,IC50,HepG2,> 30 µM
same,IC50,COLO 320,> 30 µM
same,IC50,MIA PaCa-2,> 30 µM
